Results as given in ChEMBL document CHEMBL1124810, “Synthesis and anti-HIV evaluation of 2',3'-dideoxyribo-5-chloropyrimidine analogues: reduced toxicity of 5-chlorinated 2',3'-dideoxynucleosides” (1990).

Tests used:
Format in all cases: functional
MT4 [1] = assay: Selectivity index of CD50 to ED50 of MT-4 cells
[2] = system: Human immunodeficiency virus 1; assay: Effective dose achieving 50% protection of MT-4 cells against the cytopathic effect of HIV; conditions: Human immunodeficiency virus 1, MT4; read-out: ED50 (the source's name)
MT4 [3] = assay: Cytotoxic dose required to reduce the viability of normal uninfected MT-4 cells by 50%; conditions: Homo sapiens, read-out: CD50 (the source's name)

SMILES | EC50 [2] | Selectivity index (MT4 [1]) | CC50 (MT4 [3])
Nc1ccn([C@H]2C=C[C@@H](CO)O2)c(=O)n1 | 0.13 µM | 61 | 7.9 µM
Nc1nc(=O)n([C@H]2C=C[C@@H](CO)O2)cc1Cl | 22 µM | 8.4 | 185 µM
O=c1[nH]c(=O)n([C@H]2C=C[C@@H](CO)O2)cc1Cl | > 20 µM | <2.2 | 44 µM
O=c1ccn(C2C[C@@H](F)[C@@H](CO)O2)c(=O)[nH]1 (some centres not stated) | 0.06 µM | 18 | 1.1 µM
Nc1nc(=O)n(C2C[C@@H](F)[C@@H](CO)O2)cc1Cl (some centres not stated) | 26 µM | >38 | > 1000 µM
[N-]=[N+]=N[C@@H]1CC(n2cc(Cl)c(=O)[nH]c2=O)O[C@@H]1CO (some centres not stated) | 0.72 µM | 296 | 213 µM
Cc1cn(/C=C/C(O)C(O)CO)c(=O)[nH]c1=O (configuration not stated) | 475 µM | >1 | > 500 µM
[N-]=[N+]=N[C@@H]1CC(n2cc(Cl)c(N)nc2=O)O[C@@H]1CO (some centres not stated) | 9 µM | 97 | 877 µM
Nc1nc(=O)n(C2CCC(CO)O2)cc1Cl (configuration not stated) | > 500 µM | – | > 500 µM
O=c1ccn([C@H]2C=C[C@@H](CO)O2)c(=O)[nH]1 | > 20 µM | <2 | 39 µM
[N-]=[N+]=N[C@H]1C[C@H](n2ccc(=O)[nH]c2=O)O[C@@H]1CO [NAVURIDINE] | 0.43 µM | 90 | 39 µM
O=c1[nH]c(=O)n([C@H]2C[C@H](F)[C@@H](CO)O2)cc1Cl [RALURIDINE] | 0.38 µM | 1408 | –
Cc1cn([C@H]2C=C[C@@H](CO)O2)c(=O)[nH]c1=O [STAVUDINE] | 0.05 µM | 380 | 19 µM
Cc1cn([C@H]2C[C@H](N=[N+]=[N-])[C@@H](CO)O2)c(=O)[nH]c1=O [ZIDOVUDINE] | 0.003 µM | 1603 | 4.81 µM

More lines, main results first:

EC50 [2] | SMILES | Selectivity index (MT4 [1]) | CC50 (MT4 [3])
7.6 µM | [N-]=[N+]=N[C@H]1C[C@H](n2ccc(N)nc2=O)O[C@@H]1CO | 21 | 160 µM
210 µM | O=c1ccn(C2CCC(CO)O2)c(=O)[nH]1 (configuration not stated) | >3 | > 625 µM
16 µM | Nc1ccn(C2C[C@@H](F)[C@@H](CO)O2)c(=O)n1 (some centres not stated) | 1.6 | 26 µM
81 µM | O=c1[nH]c(=O)n(C2CCC(CO)O2)cc1Cl (configuration not stated) | >6 | > 500 µM
> 500 µM | O=c1ccn(/C=C/C(O)C(O)CO)c(=O)[nH]1 (configuration not stated) | – | > 500 µM
0.3 µM | Nc1ccn([C@H]2CC[C@@H](CO)O2)c(=O)n1 [ZALCITABINE] | 120 | 40 µM
